Holding throughout (assay type): cell-based
One assay concerns BT-549. The assay can be described thus: NCI60 5-dose screen, BT-549. As to conditions: Homo sapiens, breast cancer, Fig 1D, read-out: Log10 GI50 (BT-549) (converted). Here is the method: (§1) The screening methodology used in the NCI60 Cell 5-Doses screen is described in detail at https://dtp.cancer.gov/discovery_development/nci-60/methodology.htm. Briefly, cells are seeded in 96 well plates at an appropriate density and incubated for 1 day. After 1 day, some of the plates are processed to determine a time zero density. To the remaining plates, compounds are added over a 5-log M concentration range (1 log dilutions from 10^-4M to 10^-8M). Plates are incubated for two additional days, then fixed and stained with sulforhodamine B. Growth inhibition is calculated relative to cells without drug treatment and the time zero control. The GI50 is the concentration of a compound that causes 50% growth inhibition, relative to the no drug control.

The subject of the next assay is NCI-H522. Kind of assay: NCI60 5-dose screen, NCI-H522. The note with it: Homo sapiens, non-small cell lung cancer, Fig 1D, read-out: Log10 GI50 (NCI-H522) (converted). Here is the method:
as §1

Another assay deals with OVCAR-3. The assay can be described thus: NCI60 5-dose screen, OVCAR-3. The note with it: Homo sapiens, ovarian cancer, Fig 1D, read-out: Log10 GI50 (OVCAR-3) (converted). Here is the method: as §1
The test system of the next assay is SF-539. Kind of assay: NCI60 5-dose screen, SF-539. As to conditions: Homo sapiens, CNS cancer, Fig 1D, read-out: Log10 GI50 (SF-539) (converted). Here is the method:
as §1

The subject of another assay is HCT-116 cells. The assay can be described thus: 3-day MTS cell viability assay, HCT-116. As to conditions: Homo sapiens, 72 hours, Fig 1C. Here is the method:
All cancer cell lines (HT-29: colorectal adenocarcinoma, HCT-116: colorectal carcinoma, A549: lung epithelial carcinoma, PC3: prostate adenocarcinoma, Jurkat: acute T-cell leukemia, BC-1: primary effusion lymphoma) and the normal human embryonal lung fibroblast cell line MRC-5 were acquired from the American Type Culture Collection (ATCC). All cell lines were cultured as recommended by the suppliers. Culture media were purchased from Gibco (Thermo Fisher Scientific) and supplemented with 10 to 20% fetal bovine serum (HyClone, GE Healthcare Life Sciences) and 20–25 μg/mL gentamicin (Gibco, Thermo Fisher Scientific). […]
(§2) Cell viability in cancer cell lines treated with compound was measured in a 3-day MTS cell proliferation assay using the CellTiter 96 AQueous Non-Radioactive Cell Proliferation Assay reagent (Promega) according to the manufacturer’s instructions. Absorbance was read at 490 nm on a SaFire II microplate reader (Tecan). CC50 values were calculated by fitting the obtained MTS cell viability data in GraphPad Prism using a 4-parameter log–based fit for inhibitors. Apoptosis induction and cell death upon compound treatment in PBMC was measured using the Alexa Fluor 488 Annexin V/Dead Cell Apoptosis Kit (Thermo Fisher Scientific), with readout on a FACSCanto II flow cytometer (BD Biosciences). […] The compounds were evaluated in duplo in two independent experiments.
For orientation: Formazan colour is commonly taken as a measure of viable cells.

In the next assay the test system is NCI-H460. Kind of assay: NCI60 5-dose screen, NCI-H460. As to conditions: Homo sapiens, non-small cell lung cancer, Fig 1D, read-out: Log10 GI50 (NCI-H460) (converted). Here is the method: as §1
For the next assay, the system named is SK-MEL-5. Kind of assay: NCI60 5-dose screen, SK-MEL-5. The note with it: Homo sapiens, melanoma, Fig 1D, read-out: Log10 GI50 (SK-MEL-5) (converted). Here is the method:
as §1

The subject of a further assay is COLO 205. Kind of assay: NCI60 5-dose screen, COLO 205. As to conditions: Homo sapiens, colon cancer, Fig 1D, read-out: Log10 GI50 (COLO 205) (converted). Here is the method: as §1
In a further assay the test system is LOX IMVI. Kind of assay: NCI60 5-dose screen, LOX IMVI. The note with it: Homo sapiens, melanoma, Fig 1D, read-out: Log10 GI50 (LOX IMVI) (converted). Here is the method:
as §1

The test system of another assay is PBMC. The assay can be described thus: Annexin V/PI flow cytometry viability, PBMC. The note with it: Homo sapiens, 72 hours, normal cells, Fig 1C.
Description: Buffy coat preparations from healthy donors were obtained from the Blood Transfusion Center in Leuven, Belgium. Peripheral blood mononuclear cells (PBMC) were isolated by density gradient centrifugation over Lymphoprep™ (Axis Shield PoC AS; density 1.077 ± 0.001 g/mL) and cultured in cell culture medium (DMEM/F12, Gibco Thermo Fisher Scientific) containing 8% fetal bovine serum. Each donor consented to the use of his blood for research purposes.
as §2, with “Biosciences). For cell cycle analysis, Jurkat cells were seeded at 400,000 cells per well in 12-well tissue culture plates and treated with the test compounds at the indicated concentrations for 24 h.” for “Biosciences).”

In a further assay the test system is HS 578T. The assay can be described thus: NCI60 5-dose screen, HS 578T. The note with it: Homo sapiens, breast cancer, Fig 1D, read-out: Log10 GI50 (HS 578T) (converted). Here is the method: as §1
The next assay deals with MDA-MB-435. The assay can be described thus: NCI60 5-dose screen, MDA-MB-435. The note with it: Homo sapiens, melanoma, Fig 1D, read-out: Log10 GI50 (MDA-MB-435) (converted). Here is the method: as §1
The test system of the next assay is SF-268. Kind of assay: NCI60 5-dose screen, SF-268. The note with it: Homo sapiens, CNS cancer, Fig 1D, read-out: Log10 GI50 (SF-268) (converted). Here is the method: as §1
The subject of a further assay is U251. Kind of assay: NCI60 5-dose screen, U251. The note with it: Homo sapiens, U-251; CNS cancer; Fig 1D; read-out: Log10 GI50 (U251) (converted). Here is the method:
as §1

The test system of another assay is SK-OV-3. The assay can be described thus: NCI60 5-dose screen, SK-OV-3. As to conditions: Homo sapiens, ovarian cancer, Fig 1D, read-out: Log10 GI50 (SK-OV-3) (converted). Here is the method: as §1
The next assay deals with CAKI-1. Kind of assay: NCI60 5-dose screen, CAKI-1. The note with it: Homo sapiens, renal cancer, Fig 1D, read-out: Log10 GI50 (CAKI-1) (converted). Here is the method: as §1
In another assay the test system is NCI-H23. Kind of assay: NCI60 5-dose screen, NCI-H23. The note with it: Homo sapiens, non-small cell lung cancer, Fig 1D, read-out: Log10 GI50 (NCI-H23) (converted). Here is the method:
as §1

Another assay relates to K-562. Kind of assay: NCI60 5-dose screen, K-562. As to conditions: Homo sapiens, K562; leukemia; Fig 1D; read-out: Log10 GI50 (K-562) (converted). Here is the method:
as §1

A further assay has as its system A498. The assay can be described thus: NCI60 5-dose screen, A498. As to conditions: Homo sapiens, renal cancer, Fig 1D, read-out: Log10 GI50 (A498) (converted). Here is the method: as §1

One may read the GI50 as the concentration giving 50% growth inhibition. A word on the IC50: it is the midpoint of a concentration-inhibition curve. Lower therefore signals greater potency. As for `Cc1cc(C)cc(Nc2ccc([N+](=O)[O-])c(NCCN3CCOCC3)n2)c1` [Compound 4AZA2891, 6-(3,5-dimethylanilino)-2-(2-morpholinoethylamino)-3-nitropyridine], the 50% growth inhibitory concentration (GI50) with BT-549 is 0.0589 µM; in the assay on NCI-H522 it was < 0.01 µM; in the assay on OVCAR-3, < 0.01 µM; with SF-539 it was < 0.01 µM; in the assay with NCI-H460, 0.0174 µM; in the assay on SK-MEL-5, < 0.01 µM. Further, the GI50 with COLO 205 is 0.0214 µM; in the assay with LOX IMVI, 0.0115 µM; with HS 578T, 0.0166 µM; in the assay on MDA-MB-435, < 0.01 µM; in the assay with SF-268, 0.135 µM; with U251, 0.0309 µM. Also, the 50% growth inhibitory concentration (GI50) in the assay with SK-OV-3 was 0.0589 µM; in the assay with CAKI-1, < 0.01 µM; in the assay with NCI-H23 it was 0.0275 µM; in the assay on K-562, 0.0115 µM; in the assay on A498, < 0.01 µM. For the same compound, the IC50 was found to be 0.0174 µM in the assay on HCT-116 cells and 76.7 µM in the assay with PBMC.

Consider `Cc1ccnc(Nc2ccc([N+](=O)[O-])c(NCCN3CCOCC3)n2)c1` [Compound 4AZA2996, N^6-(4-methylpyridin-2-yl)-N^2-(2-morpholinoethyl)-3-nitropyridine-2,6-diamine], for which the GI50 in the assay on BT-549 was 0.0191 µM; with NCI-H522 it was < 0.01 µM; with OVCAR-3 it was < 0.01 µM; with SF-539, < 0.01 µM; with NCI-H460, < 0.01 µM; in the assay with SK-MEL-5, < 0.01 µM. For the same compound, the 50% growth inhibitory concentration (GI50) was < 0.01 µM in the assay on COLO 205; < 0.01 µM in the assay on LOX IMVI; < 0.01 µM in the assay on HS 578T; < 0.01 µM in the assay on MDA-MB-435; 0.0589 µM in the assay on SF-268; < 0.01 µM with U251. Moreover, the 50% growth inhibitory concentration (GI50) was < 0.01 µM in the assay on SK-OV-3; < 0.01 µM in the assay with CAKI-1; 0.0155 µM in the assay with NCI-H23; < 0.01 µM in the assay with K-562; < 0.01 µM in the assay on A498. Further, the half-maximal inhibitory concentration (IC50) in the assay on HCT-116 cells worked out at 0.01 µM; in the assay with PBMC, 14.1 µM.
